Paper PMC9127750, “Structure-based design of CDC42 effector interaction inhibitors for the treatment of cancer” (Cell reports, 2022)

System: WM3248 melanoma cells, 486 antibodies
Assay: Reverse phase protein arrays (RPPA);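 on RPPA ACC1.R.C: ratio of treated to vehicle (0 µM) normalized linear protein signal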;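 on RPPA AMPK.a2 pS345.R.V: ratio of treated to vehicle (0 µM) normalized linear protein signal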;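 on RPPA AMPKa pT172.R.C: ratio of treated to vehicle (0 µM) normalized linear protein signal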;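 on RPPA ASNS.R.V: ratio of treated to vehicle (0 µM) normalized linear protein signal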;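 on RPPA AceCS1.R.V: ratio of treated to vehicle (0 µM) normalized linear protein signal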;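 on RPPA Akt1.R.V: ratio of treated to vehicle (0 µM) normalized linear protein signal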;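 on RPPA Atg5.R.C: ratio of treated to vehicle (0 µM) normalized linear protein signal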;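 on RPPA Bim.R.V: ratio of treated to vehicle (0 µM) normalized linear protein signal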
Type: cell-based, Human
Details: 10 uM
From the text: Pellets were snap frozen in liquid nitrogen and shipped to MD Anderson Cancer Center core RPPA facility for RPPA analysis (Table S5). Three biological replicates for each sample were generated.
Nomenclatures on the RPPA heatmaps: name_of_antibody.species_of_antibody.status_of_antibody. V - antibody validated; C - validation of antibody in progress; Q - antibody nonspecific; E – under evaluation; antibodies raised in M - mouse, G - goat, R - rabbit, or T - rat.

## CN(C)c1cccc(Nc2cc(-c3ccccc3)nc(C3CCNCC3)n2)c1 [ARN22089, N1,N1-dimethyl-N3-(6-phenyl-2-(piperidin-4-yl)pyrimidin-4-yl)benzene-1,3-diamine]
Average
  RPPA level MTCO1.M.V: 0.952
  RPPA level Mcl.1.R.V: 0.908
  RPPA level MelanA.R.C: 0.925
  RPPA level Merlin.R.C: 0.993
  RPPA level Midkine.R.V: 1.001
  RPPA level Mitofusin.1.R.V: 0.993
  RPPA level Mitofusin.2.R.V: 0.945
  RPPA level Mnk1.R.V: 0.956
  RPPA level mTOR.R.V: 0.929
  RPPA level mTOR_pS2448.R.C: 0.962
  c.Jun_pS73.R.V RPPA level: 1.013
  c.Kit.R.V RPPA level: 1.031
  c.Met_pY1234_Y1235.R.V RPPA level: 0.982
  c.Myc.R.C RPPA level: 1.334
  cGAS.R.V RPPA level: 1.114
  cdc2_pY15.R.C RPPA level: 0.967
  cdc25C.R.V RPPA level: 0.900
C.1
  RPPA A.Raf.R.V: 0.924
  RPPA A.Raf_pS299.R.C: 1.052
  RPPA ACC1.R.C: 0.932
  RPPA ACC_pS79.R.V: 1.211
  RPPA ACLY_pS455.R.V: 1.216
  RPPA ACVRL1.R.C: 1.064
  RPPA ADAR1.M.V: 1.080
  RPPA ALKBH5.R.V: 1.056
  RPPA AMPK.a2_pS345.R.V: 0.962
  RPPA AMPKa.R.C: 0.981
  RPPA AMPKa_pT172.R.C: 2.354
  RPPA AR.R.V: 0.957
  RPPA ARID1A.R.C: 1.055
  RPPA ASNS.R.V: 0.968
  RPPA ATM.R.V: 0.876
  RPPA ATM_pS1981.R.V: 1.025
  RPPA ATP5A.M.C: 1.084
  RPPA ATP5H.R.V: 1.134
  RPPA ATRX.R.C: 0.823
  RPPA AceCS1.R.V: 1.056
  RPPA Akt1.R.V: 0.796
  RPPA Akt1_pS473.R.V: 0.792
  RPPA Akt2.R.V: 0.881
  RPPA Akt2_pS474.R.C: 0.939
  RPPA Akt.R.V: 0.872
  RPPA Akt_pS473.R.V: 0.917
  RPPA Akt_pT308.R.V: 0.810
  RPPA Ambra1_pS52.R.C: 1.060
  RPPA Annexin.I.M.V: 0.884
  RPPA Annexin.VII.M.V: 1.054
  RPPA Atg3.R.V: 0.850
  RPPA Atg4B.R.C: 0.734
  RPPA Atg5.R.C: 0.909
  RPPA Atg7.R.V: 0.713
  RPPA Aurora.A.R.C: 1.325
  RPPA Aurora.ABC_pT288_pT232_pT198.R.C: 1.697
  RPPA Axl.R.V: 0.673
  RPPA B7.H3.R.C: 0.862
  RPPA B7.H4.R.C: 0.874
  RPPA B.Raf.R.C: 0.709
  RPPA B.Raf_pS445.R.V: 0.874
  RPPA BCL2A1.R.V: 0.885
  RPPA BMK1.Erk5_pT218_Y220.R.V: 1.100
  RPPA BRCA1.M.C: 0.993
  RPPA Bad_pS112.R.V: 1.031
  RPPA Bak.R.C: 1.026
  RPPA Bax.R.V: 0.917
  RPPA Bcl2.R.C: 1.064
  RPPA Bcl.xL.R.V: 0.877
  RPPA BiP.GRP78.M.C: 0.971
  RPPA Bid.R.C: 0.858
  RPPA Bim.R.V: 0.886
  RPPA X4E.BP1.R.V: 1.220
  RPPA X4E.BP1_pS65.R.V: 0.985
  RPPA X4E.BP1_pT37_T46.R.V: 0.975
  RPPA X14.3.3.zeta.R.V: 1.026
  RPPA X53BP1.R.V: 0.922
  RPPA b.Actin.R.C: 0.996
  RPPA b.Catenin_pT41_S45.R.V: 0.984
  RPPA c.Abl.R.V: 1.031
  RPPA c.Abl_pY412.R.C: 0.928
  RPPA c.IAP2.R.C: 1.007
Average of 3
  RPPA PREX1.R.V Average: 0.915
  RPPA PTEN.R.V Average: 0.933
  RPPA PTPN12.R.V Average: 0.962
  RPPA PYGB.R.V Average: 1.021
  RPPA PYGM.M.C Average: 1.025
  RPPA Puma.R.C Average: 0.968
  RPPA Pyk2_pY402.R.C Average: 0.960
  RPPA RBM15.R.V Average: 0.873
  RPPA RIP3.R.C Average: 0.948
  RPPA RIP.R.C Average: 0.978
  RPPA RPA32_pS4_S8.R.C Average: 1.083
  RPPA RRM1.R.C Average: 0.916
  RPPA RRM2.R.C Average: 0.917
  RPPA RSK1.R.V Average: 0.967
  RPPA RSK.R.C Average: 0.909
  RPPA Rab11.R.C Average: 0.990
  RPPA Rab25.R.V Average: 0.979
  RPPA Rad17_pS645.R.V Average: 1.063
  RPPA Rad23A.R.C Average: 0.920
  RPPA Rad50.R.V Average: 0.991
  RPPA Rad51.R.C Average: 1.083
  RPPA Raptor.R.V Average: 0.939
  RPPA Rb.M.Q Average: 1.024
  RPPA Rb_pS807_S811.R.V Average: 0.952
  RPPA Rheb.M.C Average: 1.056
  RPPA Rictor.R.C Average: 0.955
  RPPA Rictor_pT1135.R.V Average: 1.027
  RPPA S6.M.V Average: 0.930
  RPPA S6_pS235_S236.R.V Average: 0.713
  RPPA S6_pS240_S244.R.V Average: 0.956
  RPPA SCD.M.V Average: 1.034
  RPPA SF2.R.V Average: 1.005
  RPPA SFRP1.R.V Average: 0.965
  RPPA SGK1.R.V Average: 1.012
  RPPA SGK3.R.V Average: 1.035
  RPPA SHP2.R.V Average: 1.004
  RPPA SHP.2_pY542.R.C Average: 0.896
  RPPA SIRPαR.V Average: 1.009
  RPPA SLC1A5.R.C Average: 0.975
  RPPA SOD1.M.V Average: 1.031
  RPPA SOD2.R.V Average: 1.115
  RPPA SOX7.R.V Average: 1.015
  RPPA STING.R.V Average: 0.904
  RPPA Shc_pY317.R.C Average: 1.847
  RPPA Slfn11.G.C Average: 0.945
  RPPA Smac.M.Q Average: 0.998
  RPPA Smad1.R.V Average: 1.021
  RPPA Smad3.R.V Average: 0.979
  RPPA Snail.M.Q Average: 0.977
  RPPA Sox2.R.V Average: 0.987
  RPPA Sox17.R.V Average: 1.018
  RPPA Src.M.V Average: 1.079
  RPPA Src_pY416.R.V Average: 0.992
  RPPA Src_pY527.R.V Average: 0.908
  RPPA Stat1_pY701.R.V Average: 1.035
  RPPA Stat3.R.C Average: 0.972
  RPPA Stat3_pY705.R.C Average: 1.002
  RPPA Stat5a.R.V Average: 0.958
  RPPA TAZ.R.V Average: 0.958
  RPPA TEAD.R.C Average: 0.967
  RPPA TFAM.R.V Average: 0.914
  RPPA TFRC.R.V Average: 0.926
  RPPA TIGAR.R.V Average: 0.978
  RPPA TRAP1.M.V Average: 1.032
  RPPA TRIM25.R.C Average: 0.869
  RPPA TRIP13.R.V Average: 1.026
  RPPA Transglutaminase.M.V Average: 1.215
Average of 3 replicates
  RPPA signal, antibody TSC1.R.C, Average: 0.905
  RPPA signal, antibody TTF1.R.V, Average: 0.943
  RPPA signal, antibody TUFM.R.V, Average: 1.288
  RPPA signal, antibody Tuberin.R.V, Average: 0.933
  RPPA signal, antibody Tuberin_pT1462.R.V, Average: 1.050
  RPPA signal, antibody Twist.M.C, Average: 1.060
  RPPA signal, antibody Tyro3.R.V, Average: 1.231
  RPPA signal, antibody U.Histone.H2B.R.C, Average: 0.832
  RPPA signal, antibody UBAC1.R.V, Average: 0.948
  RPPA signal, antibody UBQLN4.M.C, Average: 0.975
  RPPA signal, antibody UGT1A.M.V, Average: 1.078
  RPPA signal, antibody ULK1_pS757.R.C, Average: 0.965
  RPPA signal, antibody UQCRC2.M.C, Average: 0.921
  RPPA signal, antibody UVRAG.R.C, Average: 0.967
  RPPA signal, antibody VASP.R.V, Average: 0.887
  RPPA signal, antibody VAV1.R.C, Average: 0.939
  RPPA signal, antibody VEGFR.2.R.V, Average: 0.919
